14 compounds from patent US12331022B2, “Spiropiperidine allosteric modulators of nicotinic acetylcholine receptors” (Merck Sharp & Dohme LLC, priority 2019, dated 2025) can be followed below.

Like-named read-outs stand apart in the source and are kept apart here.

This assay deals with T1, human α7 nAChR (Homo sapiens, UniProt P36544).
T1 construct: host or cells: HEK
Put plainly: Automated patch-clamp electrophysiology functional assay (Assay A). The format is cell-based. The note with it: HEK cell line stably expressing human RIC-3 and human α7, IonFlux HT whole-cell population patch, with or without 40 μM acetylcholine. In short, it runs like this: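 Whole-cell population patch clamp at −60 mV, room temperature, on HEK cells stably co-expressing human α7 and RIC-3; compounds tested at three ascending concentrations per recording, alone (agonism) or with 40 μM acetylcholine (potentiation). Currents normalised to an initial 1 s 40 μM acetylcholine response; EC50 from concentration series.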
In general terms: The patch-clamp technique gives a direct electrical read-out from membranes.

T1 sequence (P36544 23-502): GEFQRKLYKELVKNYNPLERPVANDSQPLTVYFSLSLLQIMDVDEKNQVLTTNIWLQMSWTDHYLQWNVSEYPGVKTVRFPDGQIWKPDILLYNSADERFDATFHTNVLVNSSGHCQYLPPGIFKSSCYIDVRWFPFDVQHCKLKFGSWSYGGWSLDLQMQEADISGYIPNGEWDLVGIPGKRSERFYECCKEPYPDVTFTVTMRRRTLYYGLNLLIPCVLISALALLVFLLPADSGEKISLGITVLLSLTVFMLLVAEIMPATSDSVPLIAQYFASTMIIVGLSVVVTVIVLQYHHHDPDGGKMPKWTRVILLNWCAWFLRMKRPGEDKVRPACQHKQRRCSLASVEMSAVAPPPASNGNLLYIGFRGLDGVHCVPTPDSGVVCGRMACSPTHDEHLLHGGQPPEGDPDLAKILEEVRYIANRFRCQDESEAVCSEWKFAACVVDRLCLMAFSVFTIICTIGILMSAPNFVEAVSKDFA

Regarding `Cc1ccc(C)c(NC[C@@H]2C(F)(F)C23CCN(S(N)(=O)=O)CC3)c1` [Example A60, (2R)-2-{[(2,5-dimethylphenyl)amino]methyl}-1,1-difluoro-6-azaspiro[2.5]octane-6-sulfonamide], the EC50 reads like this: (read-out: α7 nAChR EC50) 11 nM; (read-out: α7 nAChR Potency) at most 100 nM.

Regarding `NS(=O)(=O)N1CCC2(CC1)C[C@H]2COc1cccc(NCC(F)(F)F)n1` [Example 10, (1R)-1-[({6-[(2,2,2-Trifluoroethyl)amino]pyridin-2-yl}oxy)methyl]-6-azaspiro[2.5]octane-6-sulfonamide], the EC50 is 74 nM (read-out: α7 nAChR EC50) and at most 100 nM (read-out: α7 nAChR Potency). The like results for `NS(=O)(=O)N1CCC2(CC1)C(CSc1nnnn1-c1ccccc1)C2(F)F` (single isomer, unassigned) [Example A61, 1,1-difluoro-2-{[(1-phenyl-1H-tetrazol-5-yl)sulfanyl]methyl}-6-azaspiro[2.5]octane-6-sulfonamide] were, in that order, 1300 nM and 500 to 5000 nM.

As to `Cc1ccn(-c2cccc(OC[C@@H]3CC34CCN(S(N)(=O)=O)CC4)n2)n1` [Example A50, (1R)-1-({[6-(3-methyl-1H-pyrazol-1-yl)pyridin-2-yl]oxy}methyl)-6-azaspiro[2.5]octane-6-sulfonamide], the EC50 is, setting by setting: (read-out: α7 nAChR EC50) 250 nM; (read-out: α7 nAChR Potency) 100 to 500 nM.

Regarding `NS(=O)(=O)N1CCC2(CC1)C(COc1noc(-c3ccccc3)n1)C2(F)F` (single isomer, unassigned) [Example 6, 1,1-Difluoro-2-{[(5-phenyl-1,2,4-oxadiazol-3-yl)oxy]methyl}-6-azaspiro[2.5]octane-6-sulfonamide], the EC50 reads like this: (read-out: α7 nAChR EC50) 49 nM; (read-out: α7 nAChR Potency) at most 100 nM.

Consider `COc1ccc(Cl)cc1NC[C@@H]1CC12CCN(S(N)(=O)=O)CC2` [Example 14, (1R)-1-{[(5-Chloro-2-methoxyphenyl)amino]methyl}-6-azaspiro[2.5]octane-6-sulfonamide], for which the EC50 runs as follows: (read-out: α7 nAChR EC50) 48 nM; (read-out: α7 nAChR Potency) at most 100 nM. `COc1ccc(Cl)cc1NC(=O)[C@H]1C(F)(F)C12CCN(S(N)(=O)=O)CC2` [Example B3, (1S)—N-(5-chloro-2-methoxyphenyl)-2,2-difluoro-6-sulfamoyl-6-azaspiro[2.5]octane-1-carboxamide]: the EC50 (read-out: α7 nAChR EC50) is 1400 nM and the EC50 (read-out: α7 nAChR Potency) is 500 to 5000 nM. The like results for `Cc1cc(OCC2CC23CCN(S(N)(=O)=O)CC3)n(-c2ccccc2)n1` (racemic) [Example A14, 1-{[(3-methyl-1-phenyl-1H-pyrazol-5-yl)oxy]methyl}-6-azaspiro[2.5]octane-6-sulfonamide] were, in that order, 700 nM and 500 to 5000 nM. The like results for `COc1ccccc1NC(=O)[C@@H]1CC12CCN(S(N)(=O)=O)CC2` [Example B1, (1R)—N-(2-methoxyphenyl)-6-sulfamoyl-6-azaspiro[2.5]octane-1-carboxamide] were, in that order, 1400 nM and 500 to 5000 nM. As for `NS(=O)(=O)N1CCC2(CC1)C[C@H]2COc1noc(-c2ccccc2)n1` [Example 4, (1R)-1-{[(5-Phenyl-1,2,4-oxadiazol-3-yl)oxy]methyl}-6-azaspiro[2.5]octane-6-sulfonamide], the EC50 reads like this: (read-out: α7 nAChR EC50) 580 nM; (read-out: α7 nAChR Potency) 500 to 5000 nM.

Regarding `CN1CCN(c2cccc(OC[C@@H]3CC34CCN(S(N)(=O)=O)CC4)n2)CC1` [Example A46, (1R)-1-({[6-(4-methylpiperazin-1-yl)pyridin-2-yl]oxy}methyl)-6-azaspiro[2.5]octane-6-sulfonamide], the EC50 (read-out: α7 nAChR Potency) lay in the range of 500 to 5000 nM.

On to `NS(=O)(=O)N1CCC2(CC2COc2noc(-c3ccccc3)n2)C(F)(F)C1` (racemic) [Example A22, 4,4-difluoro-1-{[(5-phenyl-1,2,4-oxadiazol-3-yl)oxy]methyl}-6-azaspiro[2.5]octane-6-sulfonamide], for which the EC50 was 3100 nM (read-out: α7 nAChR EC50) and 500 to 5000 nM (read-out: α7 nAChR Potency).

For `NS(=O)(=O)N1CCC2(CC1)CC2CSc1ccc(C(F)(F)F)cc1` (racemic) [Example A43, 1-({[4-(trifluoromethyl)phenyl]sulfanyl}methyl)-6-azaspiro[2.5]octane-6-sulfonamide], the EC50 is 1400 nM (read-out: α7 nAChR EC50) and 500 to 5000 nM (read-out: α7 nAChR Potency). The like results for `NS(=O)(=O)N1CCC2(CC1)C[C@@H]2COc1cccc(OC(F)(F)F)c1` [Example A25, (1S)-1-{[3-(trifluoromethoxy)phenoxy]methyl}-6-azaspiro[2.5]octane-6-sulfonamide] were, in that order, 1900 nM and 500 to 5000 nM.
